Source: ChEMBL document CHEMBL1201862, “PubChem BioAssay data set” (2004)
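Assay format: 96-well plates, 48-hour exposure. GI50 marks 50% less growth.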 Activity calls are given as the source filed them. Cut-off read from the data, not from the text of the source: active = GI50 up to about 1.1 µM and inactive = higher.

Legend:
Experiment in all cases: NCI anticancer screen, dose series, 48 h
[1] = tested on: M14
[2] = tested on: UACC-62
[3] = tested on: SK-OV-3
[4] = tested on: SF-539
[5] = tested on: SK-MEL-5
[6] = tested on: OVCAR-5
[7] = tested on: NCI-H23
[8] = tested on: LOX IMVI
[9] = tested on: HT-29
[10] = tested on: MDA-N
[11] = tested on: Malme-3M
[12] = tested on: BT-549
[13] = tested on: HCT-15
[14] = tested on: EKVX
[15] = tested on: NCI-H460
[16] = tested on: UO-31
[17] = tested on: U-251
[18] = tested on: SR
[19] = tested on: SF-295
[20] = tested on: HCT-116
[21] = tested on: RPMI-8226
[22] = tested on: T47D
[23] = tested on: Hs-578T
[24] = tested on: K562
[25] = tested on: TK-10
[26] = tested on: MOLT-4
[27] = tested on: CCRF-CEM
[28] = tested on: MCF7
[29] = tested on: SK-MEL-28
[30] = tested on: HOP-92
[31] = tested on: CAKI-1
[32] = tested on: OVCAR-4
[33] = tested on: NCI/ADR-RES
[34] = tested on: KM12
[35] = tested on: MDA-MB-231
[36] = tested on: SW-620
[37] = tested on: UACC-257
[38] = tested on: HCC 2998
[39] = tested on: 786-0
[40] = tested on: A549
[41] = tested on: ACHN
[42] = tested on: MDA-MB-435
[43] = tested on: SN12C
[44] = tested on: NCI-H226
[45] = tested on: IGROV-1
[46] = tested on: DU-145
[47] = tested on: HL-60
[48] = tested on: RXF 393
[49] = tested on: SNB-75
[50] = tested on: OVCAR-3
[51] = tested on: OVCAR-8
[52] = tested on: NCI-H522
[53] = tested on: A498
[54] = tested on: HOP-62
[55] = tested on: SK-MEL-2
[56] = tested on: PC-3
[57] = tested on: COLO 205
[58] = tested on: SF-268
[59] = tested on: SNB-19

Measured: GI50

O=C(O)c1cc(/N=N/c2ccc([N+](=O)[O-])cc2)ccc1O
inactive: [1] 39.4 µM | [2] 31.3 µM | [3] 81.7 µM | [4] 33.3 µM | [5] 34.6 µM | [6] 30.3 µM | [7] 40.2 µM | [8] 39.7 µM | [9] 28.8 µM | [10] 43.9 µM | [11] 42.6 µM | [12] 42.4 µM | [14] 19 µM | [15] 28.2 µM | [16] 16.6 µM | [17] 21.6 µM | [18] 29.4 µM | [19] 32.3 µM | [20] 30.5 µM | [21] 21.1 µM | [22] 42.6 µM | [23] 37.6 µM | [24] 29.6 µM | [25] 25.6 µM | [26] 24.8 µM | [27] 28.4 µM | [28] 30.8 µM | [29] 37.7 µM | [30] 18 µM | [31] 29.2 µM | [32] 23.9 µM | [33] 30.8 µM | [34] 33.2 µM | [35] 26.9 µM | [36] 36 µM | [37] 24 µM | [38] 18.7 µM | [39] 34.3 µM | [40] 32.6 µM | [41] 37.3 µM | [42] 34.9 µM | [43] 30.8 µM | [44] 17 µM | [45] 40.2 µM | [46] 38.3 µM | [47] 29 µM | [48] 42.3 µM | [49] 38.7 µM | [50] 15.6 µM | [51] 33.4 µM | [52] 28 µM | [53] 19.5 µM | [54] 40.6 µM | [55] 26.5 µM | [56] 33.7 µM | [57] 30.8 µM | [58] 35.6 µM | [59] 30.9 µM
31.8 µM: [13]

CCC(C)C1NC(=O)C(NC(=O)C(CC(C)C)N(C)C(=O)[C@@H]2CC(O)CN2C(=O)[C@H](C)O)C(C)OC(=O)[C@H](Cc2ccc(OC)cc2)N(C)C(=O)[C@@H]2CCCN2C(=O)[C@H](CC(C)C)NC(=O)C(C)C(=O)[C@H](C(C)C)OC(=O)CC1O (stereo partly drawn)
inactive: [16] 1.44 µM | [31] 1.14 µM | [33] 6.84 µM
2.13 µM: [13]
active: [1] 0.0935 µM | [2] 0.0542 µM | [3] 0.179 µM | [4] 0.0319 µM | [5] 0.0359 µM | [6] 0.265 µM | [7] 0.0169 µM | [8] 0.138 µM | [9] 0.134 µM | [10] 0.133 µM | [11] 0.0664 µM | [12] 0.189 µM | [14] 0.0201 µM | [15] 0.117 µM | [17] 0.0718 µM | [18] 0.345 µM | [19] 0.225 µM | [20] 0.0458 µM | [21] 0.249 µM | [22] 0.0452 µM | [23] 0.0266 µM | [24] 0.29 µM | [25] 0.676 µM | [26] 0.102 µM | [27] 0.191 µM | [28] 0.0627 µM | [29] 0.0462 µM | [30] 0.255 µM | [32] 0.17 µM | [34] 0.035 µM | [35] 0.349 µM | [36] 0.235 µM | [37] 0.276 µM | [38] 0.148 µM | [39] 0.258 µM | [40] 0.325 µM | [41] 0.351 µM | [42] 0.152 µM | [43] 0.147 µM | [44] 0.0641 µM | [45] 0.181 µM | [46] 0.356 µM | [47] 0.417 µM | [48] 0.0638 µM | [49] 0.141 µM | [50] 0.232 µM | [51] 0.406 µM | [52] 0.15 µM | [53] 0.759 µM | [54] 0.25 µM | [55] 0.0621 µM | [56] 0.252 µM | [57] 0.117 µM | [58] 0.153 µM | [59] 0.164 µM
